Source: ChEMBL document CHEMBL1201862, “PubChem BioAssay data set” (2004)
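48-hour exposure; five concentrations; linearly interpolated endpoints. Here, GI50 denotes the concentration required for 50% inhibition of growth.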 Calls of active or inactive are those of the source. No stated cut-off is given here; in the data, active = GI50 up to about 1.1 µM and inactive = higher.

How the values were obtained:
Test in all cases: NCI-60 cell line screen, 48 h
SK-MEL-5 = test system: SK-MEL-5
M14 = test system: M14
A498 = test system: A498
COLO 205 = test system: COLO 205
NCI-H460 = test system: NCI-H460
DLD-1 = test system: DLD-1
HT-29 = test system: HT-29
NCI-H23 = test system: NCI-H23
Malme-3M = test system: Malme-3M
TK-10 = test system: TK-10
A549 = test system: A549
UACC-62 = test system: UACC-62
SF-295 = test system: SF-295
OVCAR-3 = test system: OVCAR-3
HOP-92 = test system: HOP-92
UO-31 = test system: UO-31
MOLT-4 = test system: MOLT-4
HCC 2998 = test system: HCC 2998
OVCAR-8 = test system: OVCAR-8
UACC-257 = test system: UACC-257
OVCAR-5 = test system: OVCAR-5
SW-620 = test system: SW-620
LOX IMVI = test system: LOX IMVI
SNB-75 = test system: SNB-75
M19-MEL = test system: M19-MEL
KM-20L2 = test system: KM-20L2
SK-MEL-2 = test system: SK-MEL-2
DMS-114 = test system: DMS-114
OVCAR-4 = test system: OVCAR-4
DMS-273 = test system: DMS-273
CCRF-CEM = test system: CCRF-CEM
SK-MEL-28 = test system: SK-MEL-28
SK-OV-3 = test system: SK-OV-3
XF498 = test system: XF498
HOP-62 = test system: HOP-62
HOP-18 = test system: HOP-18
SNB-78 = test system: SNB-78
SF-268 = test system: SF-268
ACHN = test system: ACHN
CAKI-1 = test system: CAKI-1
SNB-19 = test system: SNB-19
HCT-15 = test system: HCT-15
SF-539 = test system: SF-539
U-251 = test system: U-251
IGROV-1 = test system: IGROV-1
HCT-116 = test system: HCT-116
786-0 = test system: 786-0
RPMI-8226 = test system: RPMI-8226
K562 = test system: K562
KM12 = test system: KM12
EKVX = test system: EKVX
SN12C = test system: SN12C
NCI-H226 = test system: NCI-H226
RXF 393 = test system: RXF 393
MCF7 = test system: MCF7
NCI/ADR-RES = test system: NCI/ADR-RES
HL-60 = test system: HL-60
NCI-H522 = test system: NCI-H522
LXFL 529 = test system: LXFL 529
SR = test system: SR

O=c1[nH]nc2ccccc2c1Cc1ccccc1
GI50 (SK-MEL-5): > 100 µM (inactive) | GI50 (M14): > 100 µM (inactive) | GI50 (A498): > 100 µM (inactive) | GI50 (COLO 205): > 100 µM (inactive) | GI50 (NCI-H460): > 100 µM (inactive) | GI50 (DLD-1): > 100 µM (inactive) | GI50 (HT-29): > 100 µM (inactive) | GI50 (NCI-H23): > 100 µM (inactive) | GI50 (Malme-3M): > 100 µM (inactive) | GI50 (TK-10): > 100 µM (inactive) | GI50 (A549): > 100 µM (inactive) | GI50 (UACC-62): > 100 µM (inactive) | GI50 (SF-295): > 100 µM (inactive) | GI50 (OVCAR-3): > 100 µM (inactive) | GI50 (HOP-92): > 100 µM (inactive) | GI50 (UO-31): > 100 µM (inactive) | GI50 (MOLT-4): > 100 µM (inactive) | GI50 (HCC 2998): 59.3 µM (inactive) | GI50 (OVCAR-8): > 100 µM (inactive) | GI50 (UACC-257): > 100 µM (inactive) | GI50 (OVCAR-5): > 100 µM (inactive) | GI50 (SW-620): > 100 µM (inactive) | GI50 (LOX IMVI): > 100 µM (inactive) | GI50 (SNB-75): 96.6 µM (inactive) | GI50 (M19-MEL): > 100 µM (inactive) | GI50 (KM-20L2): > 100 µM (inactive) | GI50 (SK-MEL-2): > 100 µM (inactive) | GI50 (DMS-114): > 100 µM (inactive) | GI50 (OVCAR-4): > 100 µM (inactive) | GI50 (DMS-273): > 100 µM (inactive) | GI50 (CCRF-CEM): > 100 µM (inactive) | GI50 (SK-MEL-28): > 100 µM (inactive) | GI50 (SK-OV-3): > 100 µM (inactive) | GI50 (XF498): > 100 µM (inactive) | GI50 (HOP-62): > 100 µM (inactive) | GI50 (HOP-18): > 100 µM (inactive) | GI50 (SNB-78): > 100 µM (inactive) | GI50 (SF-268): > 100 µM (inactive) | GI50 (ACHN): > 100 µM (inactive) | GI50 (CAKI-1): > 100 µM (inactive) | GI50 (SNB-19): > 100 µM (inactive) | GI50 (HCT-15): > 100 µM | GI50 (SF-539): > 100 µM (inactive) | GI50 (U-251): > 100 µM (inactive) | GI50 (IGROV-1): > 100 µM (inactive) | GI50 (HCT-116): > 100 µM (inactive) | GI50 (786-0): > 100 µM (inactive) | GI50 (RPMI-8226): > 100 µM (inactive) | GI50 (K562): > 100 µM (inactive) | GI50 (KM12): > 100 µM (inactive) | GI50 (EKVX): > 100 µM (inactive) | GI50 (SN12C): > 100 µM (inactive) | GI50 (NCI-H226): > 100 µM (inactive)

CCNCCCCNCC
GI50 (SK-MEL-5): > 3750 µM (inactive) | GI50 (A498): > 3750 µM (inactive) | GI50 (COLO 205): > 3750 µM (inactive) | GI50 (NCI-H460): 525 µM (inactive) | GI50 (DLD-1): > 3750 µM (inactive) | GI50 (HT-29): > 3750 µM (inactive) | GI50 (NCI-H23): > 3750 µM (inactive) | GI50 (Malme-3M): > 3750 µM (inactive) | GI50 (A549): > 3750 µM (inactive) | GI50 (UACC-62): 2750 µM (inactive) | GI50 (SF-295): > 3750 µM (inactive) | GI50 (OVCAR-3): > 3750 µM (inactive) | GI50 (RXF 393): > 3260 µM (inactive) | GI50 (HOP-92): > 3750 µM (inactive) | GI50 (UO-31): > 1230 µM (inactive) | GI50 (MCF7): > 3750 µM (inactive) | GI50 (MOLT-4): 1390 µM (inactive) | GI50 (HCC 2998): > 2670 µM (inactive) | GI50 (OVCAR-8): > 3750 µM (inactive) | GI50 (UACC-257): > 3750 µM (inactive) | GI50 (OVCAR-5): > 3750 µM (inactive) | GI50 (SW-620): > 3750 µM (inactive) | GI50 (LOX IMVI): > 3750 µM (inactive) | GI50 (SNB-75): > 3750 µM (inactive) | GI50 (NCI/ADR-RES): > 3750 µM (inactive) | GI50 (M19-MEL): > 2930 µM (inactive) | GI50 (HL-60): 736 µM (inactive) | GI50 (KM-20L2): > 2090 µM (inactive) | GI50 (SK-MEL-2): > 3750 µM (inactive) | GI50 (DMS-114): > 3600 µM (inactive) | GI50 (OVCAR-4): > 3750 µM (inactive) | GI50 (DMS-273): > 2550 µM (inactive) | GI50 (NCI-H522): > 3240 µM (inactive) | GI50 (CCRF-CEM): 1600 µM (inactive) | GI50 (SK-MEL-28): > 3750 µM (inactive) | GI50 (SK-OV-3): > 3750 µM (inactive) | GI50 (XF498): > 3750 µM (inactive) | GI50 (HOP-62): > 3750 µM (inactive) | GI50 (HOP-18): > 37.5 µM (inactive) | GI50 (SNB-78): > 3750 µM (inactive) | GI50 (SF-268): > 2990 µM (inactive) | GI50 (CAKI-1): > 3750 µM (inactive) | GI50 (SNB-19): > 3750 µM (inactive) | GI50 (HCT-15): > 3750 µM | GI50 (SF-539): > 3750 µM (inactive) | GI50 (U-251): > 3230 µM (inactive) | GI50 (IGROV-1): > 3750 µM (inactive) | GI50 (HCT-116): > 2480 µM (inactive) | GI50 (RPMI-8226): > 3750 µM (inactive) | GI50 (K562): > 3750 µM (inactive) | GI50 (KM12): > 3750 µM (inactive) | GI50 (EKVX): > 3750 µM (inactive) | GI50 (SN12C): > 2330 µM (inactive) | GI50 (NCI-H226): 2420 µM (inactive)

COC(=O)C1[C@@H](C(=O)OC)C12C=Cc1ccccc1C=C2 (some centres undefined)
GI50 (SK-MEL-5): > 100 µM (inactive) | GI50 (M14): > 100 µM (inactive) | GI50 (A498): 38.5 µM (inactive) | GI50 (COLO 205): > 100 µM (inactive) | GI50 (NCI-H460): > 100 µM (inactive) | GI50 (DLD-1): > 100 µM (inactive) | GI50 (NCI-H23): > 100 µM (inactive) | GI50 (LXFL 529): > 100 µM (inactive) | GI50 (Malme-3M): > 100 µM (inactive) | GI50 (TK-10): > 100 µM (inactive) | GI50 (A549): > 100 µM (inactive) | GI50 (UACC-62): > 100 µM (inactive) | GI50 (SF-295): > 100 µM (inactive) | GI50 (OVCAR-3): > 100 µM (inactive) | GI50 (RXF 393): > 100 µM (inactive) | GI50 (HOP-92): > 100 µM (inactive) | GI50 (UO-31): > 100 µM (inactive) | GI50 (MOLT-4): > 100 µM (inactive) | GI50 (HCC 2998): > 100 µM (inactive) | GI50 (OVCAR-8): > 100 µM (inactive) | GI50 (UACC-257): > 100 µM (inactive) | GI50 (OVCAR-5): > 100 µM (inactive) | GI50 (SW-620): > 100 µM (inactive) | GI50 (LOX IMVI): > 100 µM (inactive) | GI50 (M19-MEL): > 100 µM (inactive) | GI50 (HL-60): > 100 µM (inactive) | GI50 (SR): > 100 µM (inactive) | GI50 (KM-20L2): > 100 µM (inactive) | GI50 (SK-MEL-2): > 100 µM (inactive) | GI50 (DMS-114): > 100 µM (inactive) | GI50 (DMS-273): > 100 µM (inactive) | GI50 (NCI-H522): > 100 µM (inactive) | GI50 (CCRF-CEM): > 100 µM (inactive) | GI50 (SK-MEL-28): > 100 µM (inactive) | GI50 (SK-OV-3): > 100 µM (inactive) | GI50 (XF498): 51.6 µM (inactive) | GI50 (HOP-62): > 100 µM (inactive) | GI50 (SNB-78): > 100 µM (inactive) | GI50 (SF-268): > 100 µM (inactive) | GI50 (ACHN): > 100 µM (inactive) | GI50 (SNB-19): > 100 µM (inactive) | GI50 (HCT-15): > 100 µM | GI50 (SF-539): > 100 µM (inactive) | GI50 (U-251): > 100 µM (inactive) | GI50 (IGROV-1): > 100 µM (inactive) | GI50 (HCT-116): > 100 µM (inactive) | GI50 (786-0): > 100 µM (inactive) | GI50 (RPMI-8226): > 100 µM (inactive) | GI50 (K562): > 100 µM (inactive) | GI50 (KM12): > 100 µM (inactive) | GI50 (EKVX): > 100 µM (inactive) | GI50 (SN12C): > 100 µM (inactive)
